Results: article PMC2866155 (Chemical biology & drug design, 2009)

Key:
Type in all cases: cell-based
MCF-7 cells = experiment: MTT antiproliferative assay, MCF-7; details: Homo sapiens, MCF7, 72 h, read-out: MCF-7 IC50
SKBR-3 cells = experiment: MTT antiproliferative assay, SKBR-3; details: Homo sapiens, SK-BR-3, 72 h, read-out: SKBR-3 IC50
HCT116 cells = experiment: MTT antiproliferative assay, HCT116; details: Homo sapiens, HCT-116, 72 h, read-out: HCT116 IC50

IC50 (MCF-7 cells): 9.2 µM | IC50 (SKBR-3 cells): 1.62 µM | IC50 (HCT116 cells): 11.9 µM
SMILES: COc1ccc(C=Cc2cc(NC(=O)c3ccc(C(N)=NO)cc3)cc(OC)c2)cc1 [HERP6, 4-(N'-hydroxycarbamimidoyl)-N-[3-methoxy-5-(4-methoxystyryl)phenyl] benzamide]
